Source: article PMC3785448, “Effect of Selectively Introducing Arginine and D-Amino Acids on the Antimicrobial Activity and Salt Sensitivity in Analogs of Human Beta-Defensins” (PLoS ONE, 2013)
≈ marks a conversion by molar mass, not a printed value. Bridge positions count the residues as written; N and C are the ends. Square brackets hold non-standard residues; d marks the D form. Peptide text beside a SMILES is read from it.

What was measured:
[1] = tested on: C. albicans; assay: Candidacidal activity, minimum fungicidal concentration; format: cell-based; settings: minimum fungicidal concentration = no viable colonies; 10^6 cells/ml in 10 mM phosphate buffer pH 7.4, 2 h at 30°C, plated 24 h; average of three independent experiments in duplicate
Procedure: Minimum fungicidal concentrations (MFC) of the peptides were determined by growing C. albicans aerobically in yeast extract-peptone-dextrose (YEPD) medium at 30°C. After 20 h, 0.5 ml from this suspension was subcultured for 2 h in 20 ml of YEPD broth to obtain a mid-log-phase culture. Cells were harvested by centrifugation, washed with 10 mM phosphate buffer (PB), pH 7.4, and resuspended in the same buffer, and the concentration was adjusted to 10^6 cells/ml. Aliquots of diluted cells were incubated with peptides in 100 µl volume at 30°C for 2 h. Cell suspensions were diluted and spread on YEPD agar plates and the plates were incubated for 24 h at 30°C. Colonies were counted, and the concentrations of the peptides at which no viable colonies were formed were taken as the Minimum fungicidal concentration (MFC). Cell survival was expressed as a percentage of the control. Percentage killing was calculated as [(colonies from control cells- colonies from treated cells)/colonies from control cells x 100].
The average of results from three independent experiments done with duplicate samples was taken for the calculation of MFC. In control experiments, cells were incubated with only buffer.

[2] = tested on: P. aeruginosa (NCTC 6751); assay: Antibacterial activity, lethal concentration (colony count); format: cell-based; settings: lethal concentration = no viable colonies; 10^6 cfu/ml in 10 mM sodium phosphate buffer pH 7.4, 2 h at 37°C, plated 18 h; average of three independent experiments in duplicate, variation <5%
Procedure: (§1) Bacterial strains used were E. coli (MG 1655), S. aureus (ATCC 8530), and P. aeruginosa (NCTC 6751). The antibacterial activity of the peptides was examined in sterile 96 well plates at a ﬁnal volume of 100 µl as follows: Bacteria were grown in nutrient broth (Bacto Difco nutrient broth) to mid-log phase and diluted to 10^6 colony forming units (cfu)/ml in 10 mM sodium phosphate buffer (pH 7.4). Bacteria were incubated with different concentration of peptides for 2 h at 37°C and suitably diluted aliquots were spread on nutrient agar plates. After the plates were incubated at 37°C for 18 h, colonies formed were counted. Lethal concentration (LC) is the concentration of the peptides at which no viable colonies were formed. Cell survival is expressed as a percentage of the control. Percentage killing was calculated as: [(colonies from control cells- colonies from treated cells)/colonies from control cells x 100]. The LC determined was average of three independent experiments done in duplicate. In control experiments, cells were incubated with only buffer.

[3] = tested on: S. aureus (ATCC 8530); assay: as above; format: cell-based; settings: lethal concentration = no viable colonies; 10^6 cfu/ml in 10 mM sodium phosphate buffer pH 7.4, 2 h at 37°C, plated 18 h; average of three independent experiments in duplicate, variation <5%
Procedure: as §1

[4] = tested on: E. coli (MG 1655); assay: as above; format: cell-based, Escherichia coli; settings: lethal concentration = no viable colonies; 10^6 cfu/ml in 10 mM sodium phosphate buffer pH 7.4, 2 h at 37°C, plated 18 h; average of three independent experiments in duplicate, variation <5%
Procedure: as §1

[5] = tested on: P. aeruginosa; assay: Effect of divalent cations on antibacterial activity at LC; format: cell-based; settings: peptide at its LC; for Loss in activity at 5 mM Mg2+ against P. aeruginosa: 5 mM MgCl2, as compared to HC-1(R)
Procedure: (§2) To determine the effect of salt on antibacterial activity, different concentrations of NaCl was included in the incubation buffer at their LC. Different concentrations of divalent cations Ca^2+ and Mg^2+ (as their chloride salts), were included in the buffer to determine their effect on activity at lethal concentration (LC) of the peptides. In control experiments, cells were incubated with only buffer. Data are presented as mean ± standard deviation computed for three independent replicates.
(§3) Figure 2 Effect of divalent cations on antibacterial activity. Mid-log phase bacteria (10^6 CFU/mL) were incubated with peptides at their LC in the absence or presence of the indicated concentrations of CaCl2 and MgCl2. The data are mean values of three independent experiments and the error bars represent standard deviation of the measurements. Standard deviation values ranged between 0.2-2.7.

[6] = tested on: Gram-negative bacteria; assay: as above; format: cell-based; settings: peptide at its LC; for Antibacterial activity in the presence of 1 mM Ca2+, Gram-negative bacteria: 1 mM CaCl2 in buffer
Procedure: as §2, §3

[7] = tested on: S. aureus; assay: as above; format: cell-based; settings: peptide at its LC, 1 mM CaCl2
Procedure: as §2, §3

[8] = tested on: bacteria; assay: Antibacterial activity, comparison of peptides; format: cell-based; settings: from LC values
Procedure: as §1

Row | SMILES | MFC C. albicans [1] | LC P. aeruginosa [2] | LC S. aureus [3] | LC E. coli [4] | Loss in activity at 5 mM Mg2+ against P. aeruginosa [5] | Antibacterial activity in the presence of 1 mM Ca2+, Gram-negative bacteria [6] | Loss in activity against S. aureus at 1 mM Ca2+ [7] | Fold more active against bacteria as compared to HC-1(R) and [D]HC-1(R) [8] | Loss in activity at 5 mM Ca2+ against P. aeruginosa ([5]; 5 mM CaCl2, as compared to [D]HC-1(R)) | Antibacterial activity in the presence of 5 mM Ca2+, Gram-negative bacteria ([6]; 5 mM CaCl2 in buffer)
1 | CC[C@H](C)[C@@H]1NC(=O)[C@H](CCCCN)NC(=O)[C@H]([C@@H](C)O)NC(=O)[C@H](Cc2ccccc2)NC(=O)[C@H]([C@@H](C)CC)NC(=O)[C@@H]2CCCN2C(=O)[C@@H](NC(=O)[C@H](C)N)CSSC[C@@H](C(=O)N[C@@H](CCCNC(=N)N)C(=O)O)NC(=O)[C@H](CCCCN)NC(=O)[C@H](C)NC(=O)[C@H](CCCNC(=N)N)NC(=O)CNC(=O)[C@H](CCCNC(=N)N)NC(=O)[C@H](Cc2ccc(O)cc2)NC(=O)[C@H]([C@@H](C)O)NC(=O)CNC(=O)[C@H](CCC(N)=O)NC1=O [HC-1(R)] (H-ACPIFTKIQGTYRGRAKCR-OH; disulfide 2-18) | 2.5 µM (≈ 5.42 µg/mL) | – | – | – | – | – | – | – | – | –
2 | CC[C@@H](C)[C@H]1NC(=O)[C@H](CCCCN)NC(=O)[C@H]([C@@H](C)O)NC(=O)[C@H](Cc2ccccc2)NC(=O)[C@@H]([C@H](C)CC)NC(=O)[C@@H]2CCCN2C(=O)[C@@H](NC(=O)[C@H](C)N)CSSC[C@@H](C(=O)N[C@@H](CCCNC(=N)N)C(=O)O)NC(=O)[C@H](CCCCN)NC(=O)[C@H](C)NC(=O)[C@@H](CCCNC(=N)N)NC(=O)CNC(=O)[C@@H](CCCNC(=N)N)NC(=O)[C@H](Cc2ccc(O)cc2)NC(=O)[C@H]([C@@H](C)O)NC(=O)CNC(=O)[C@H](CCC(N)=O)NC1=O [[D]HC-1(R)] (H-ACP[dI]FTK[dI]QGTY[dR]G[dR]AKCR-OH; disulfide 2-18; N-terminus assumed) | 5 µM (≈ 10.8 µg/mL) | 5 µM | 5 µM | 5 µM | more | is not attenuated | not | – | – | –
3 | CC[C@@H](C)[C@H]1NC(=O)[C@H](CCC(N)=O)NC(=O)[C@H](CCC(=O)O)NC(=O)[C@H](CCC(=O)O)NC(=O)[C@H](CCCCN)NC(=O)[C@@H]2CCCN2C(=O)[C@H](CC(C)C)NC(=O)[C@@H](NC(=O)[C@@H](N)CO)CSSC[C@@H](C(=O)N[C@H](CCCNC(=N)N)C(=O)N[C@H](CCCNC(=N)N)C(=O)N[C@@H](CCCCN)C(=O)N[C@@H](CCCNC(=N)N)C(=O)O)NC(=O)[C@H](CCCCN)NC(=O)[C@@H](CCCNC(=N)N)NC(=O)CNC(=O)[C@@H](CCCNC(=N)N)NC(=O)[C@H]([C@@H](C)O)NC(=O)[C@H](CO)NC(=O)[C@H](CCCCN)NC(=O)CNC1=O [[D]HC-3(R)] (H-SCLPKEEQ[dI]GKST[dR]G[dR]KC[dR][dR]KR-OH; disulfide 2-18; N-terminus assumed) | 2.5 µM (≈ 6.54 µg/mL) | 2.5 µM | 2.5 µM | 2.5 µM | more | loss in activity is observed | – | 2 fold | more pronounced | further attenuated
